According to patent US8258134B2, “Pyridazinone glucokinase activators” (Hoffmann-La Roche Inc., priority 2008, dated 2012):

Tests used:
[1] = target: T1, Recombinant human liver GK1 (GST-GK) (Homo sapiens, UniProt P35557); test: Glucokinase in vitro assay (G6PDH-coupled NADH generation, OD340); type: biochemical; conditions: 5 mM D-glucose; for SC1.5 average (concentration of activator that produced a 50% increase in the activity of GK): 30° C., pH 7.1, 10% DMSO; for fold activation @ 30 uM: 30 uM test compound
T1 construct: made in house; host or cells: E. coli
T1 sequence (P35557 1-466 isoform P35557-2): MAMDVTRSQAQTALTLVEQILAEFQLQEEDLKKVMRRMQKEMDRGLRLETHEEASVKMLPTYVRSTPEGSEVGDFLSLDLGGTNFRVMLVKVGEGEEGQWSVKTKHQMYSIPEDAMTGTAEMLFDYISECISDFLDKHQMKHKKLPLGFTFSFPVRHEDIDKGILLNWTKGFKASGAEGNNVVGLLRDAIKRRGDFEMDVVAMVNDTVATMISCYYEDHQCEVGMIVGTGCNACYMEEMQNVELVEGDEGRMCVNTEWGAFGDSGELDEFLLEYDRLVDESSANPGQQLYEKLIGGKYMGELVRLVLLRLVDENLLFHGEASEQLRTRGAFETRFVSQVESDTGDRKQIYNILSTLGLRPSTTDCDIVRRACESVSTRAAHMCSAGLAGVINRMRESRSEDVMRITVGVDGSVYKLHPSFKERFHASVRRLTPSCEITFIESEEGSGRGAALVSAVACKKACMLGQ
How it was run: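 GST-tagged recombinant GK1 expressed in E. coli, run at 30° C, pH 7.1 Hepes with 5 mM D-glucose, 1 mM ATP and 1.8 mM NAD, G6PDH-coupled. Compounds were in 10% DMSO final, with a 10 min pre-incubation before enzyme addition. OD340/min rate measured; SC1.5 is the activator concentration giving a 50% increase in activity.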

Lean C57BL/6J mice = test: Glucokinase activator in vivo screen, blood glucose in lean mice; conditions: Mus musculus, vs control at 4 hours post 50 mg/kg oral dose, two hour fast, read-out: % glucose lowering @ 4 H
Method: Glucokinase Activator in vivo Screen Protocol in Lean and Diet Induced Obese Mice: Lean or Diet-induced Obese (DIO) C57BL/6J mice were orally dosed via gavage with Glucokinase (GK) activator following a two hour fasting period. Blood glucose determinations were made at various (e.g. 0, 1, 2, 4 and 8 hours post-oral gavage) times during the study.
C57Bl/6J mice were obtained from Jackson Laboratory (Bar Harbor, Me.) and were maintained in a light-dark cycle with lights on from 0600-1800 hr. For studies in lean mice, the mice were received at age ten weeks and given ad libitum access to control diet (LabDiet 5001 chow, PMI Nutrition, Brentwood, Mo.), and were at least age 11 weeks at the time of study. For studies in the DIO model, the mice were received at age five weeks and given ad libitum access to Bio-Serv F3282 High Fat Diet (Frenchtown, N.J.), and were at least age 16 weeks at the time of study. The experiments were conducted during the light phase of the light-dark cycle. Mice (n=6) are weighed and fasted for a two hour period prior to oral treatment. GK activators are formulated in Gelucire vehicle (Ethanol:Gelucire44/14:PEG400q.s. 4:66:30 v/w/v. For studies in lean mice, the mice were dosed orally with 5.0 μL per gram of body weight (i.e. 5 ml/kg×10.0 mg/ml formulation to equal a 50 mg/kg dose). For studies in DIO mice, the mice were dosed orally with 5.0 μL per gram of body weight (i.e. 5.0 ml/kg×5 mg/ml formulation to equal a 25 mg/kg dose). Immediately prior to dosing, a pre-dose (time zero) blood glucose reading was acquired by snipping off a small portion of the animal's tail and collecting 15 μL blood into a heparinized capillary tube for analysis. Following GK activator administration, additional blood glucose readings were taken at various time points post dose from the same tail wound. Results were interpreted by comparing the mean blood glucose values of vehicle treated mice with GK activator treated mice over the study period.
The Table below provides data for % glucose lowering of a representative number of compounds of the present invention vs control at 4 hours post 50 mg/kg dose in lean C57BL/6J mice: […]

Row | SC1.5 average (concentration of activator that produced a 50% increase in the activity of GK) [1] [µM] | fold activation @ 30 uM [1] [fold] | Structure (SMILES) | change in vivo at 50 mg/kg (Lean C57BL/6J mice) [%]
1 | 0.206 |  | O=C(Nc1nccs1)C(CC1CCCC1)n1ncc(Oc2ccccc2)cc1=O (stereo not drawn) [Example 2, 3-Cyclopentyl-2-(6-oxo-4-phenoxy-6H-pyridazin-1-yl)-N-thiazol-2-yl-propionamide] | -41.9
2 | 1.323 |  | CC(C)(O)Cn1ccc(NC(=O)C(CC2CCCC2)n2ncc(OC3CCCC3)cc2=O)n1 (stereo not drawn) [Example 8, 3-Cyclopentyl-2-(4-cyclopentyloxy-6-oxo-6H-pyridazin-1-yl)-N-[1-(2-hydroxy-2-methyl-propyl)-1H-pyrazol-3-yl]-propionamide] | -5.6
3 | 0.206 |  | CC(C)(O)Cn1ccc(NC(=O)C(CC2CCCC2)n2ncc(Oc3ccccc3C(F)(F)F)cc2=O)n1 (stereo not drawn) [Example 11, 3-Cyclopentyl-N-[1-(2-hydroxy-2-methyl-propyl)-1H-pyrazol-3-yl]-2-[6-oxo-4-(2-trifluoromethyl-phenoxy)-6H-pyridazin-1-yl]-propionamide] | -48.9
4 | 0.117 |  | COc1ccccc1Oc1cnn(C(CC2CCCC2)C(=O)Nc2ccn(CC(C)(C)O)n2)c(=O)c1 (stereo not drawn) [Example 12, 3-Cyclopentyl-N-[1-(2-hydroxy-2-methyl-propyl)-1H-pyrazol-3-yl]-2-[4-(2-methoxy-phenoxy)-6-oxo-6H-pyridazin-1-yl]-propionamide] | -49.3
5 | 0.179 |  | Cn1nc(NC(=O)C(CC2CCCC2)n2ncc(Oc3ccccc3C(F)(F)F)cc2=O)cc1Cl (stereo not drawn) [Example 13, N-(5-Chloro-1-methyl-1H-pyrazol-3-yl)-3-cyclopentyl-2-[6-oxo-4-(2-trifluoromethyl-phenoxy)-6H-pyridazin-1-yl]-propionamide] | -45.8
6 | 0.256 |  | Cn1ccc(NC(=O)C(CC2CCCC2)n2ncc(Oc3ccccc3C(F)(F)F)cc2=O)n1 (stereo not drawn) [Example 14, 3-Cyclopentyl-N-(1-methyl-1H-pyrazol-3-yl)-2-[6-oxo-4-(2-trifluoromethyl-phenoxy)-6H-pyridazin-1-yl]-propionamide] | -46.7
7 | 0.113 |  | CC(C)(O)Cn1ccc(NC(=O)C(CC2CCCC2)n2ncc(Oc3cccc4c3CCCC4)cc2=O)n1 (stereo not drawn) [Example 17, 3-Cyclopentyl-N-[1-(2-hydroxy-2-methyl-propyl)-1H-pyrazol-3-yl]-2-[6-oxo-4-(5,6,7,8-tetrahydro-naphthalen-1-yloxy)-6H-pyridazin-1-yl]-propionamide] | -35.2
8 | 0.334 |  | COc1cccc(Oc2cnn(C(CC(C)C)C(=O)Nc3ccn(C[C@@H](O)CO)n3)c(=O)c2)c1Cl (stereo partly drawn) [Example 127, 2-[4-(2-Chloro-3-methoxy-phenoxy)-6-oxo-6H-pyridazin-1-yl]-4-methyl-pentanoic acid [1-((R)-2,3-dihydroxy-propyl)-1H-pyrazol-3-yl]-amide] | 
9 | 0.093 |  | O=C(Nc1ccn(C[C@@H](O)CO)n1)C(CC1CCCC1)n1ncc(Oc2ccccc2Cl)cc1=O (stereo partly drawn) [Example 128, 2-[4-(2-Chloro-phenoxy)-6-oxo-6H-pyridazin-1-yl]-3-cyclopentyl-N-[1-((R)-2,3-dihydroxy-propyl)-1H-pyrazol-3-yl]-propionamide] | 
10 | 1.006 |  | CC(C)(O)Cn1ccc(NC(=O)C(CC2CCOCC2)n2ncc(Oc3ccccc3Cl)c(Cl)c2=O)n1 (stereo not drawn) [Example 129, 2-[5-Chloro-4-(2-chloro-phenoxy)-6-oxo-6H-pyridazin-1-yl]-N-[1-(2-hydroxy-2-methyl-propyl)-1H-pyrazol-3-yl]-3-(tetrahydro-pyran-4-yl)-propionamide] | 
11 | 10.224 |  | CC(C)(O)Cn1ccc(NC(=O)C(CC2CCCCC2)n2ncc(Oc3ccc(OC(F)(F)F)cc3Cl)c(Cl)c2=O)n1 (stereo not drawn) [Example 130, 2-[5-Chloro-4-(2-chloro-4-trifluoromethoxy-phenoxy)-6-oxo-6H-pyridazin-1-yl]-3-cyclohexyl-N-[1-(2-hydroxy-2-methyl-propyl)-1H-pyrazol-3-yl]-propionamide] | 
12 | > 30 | 1.18 | CC(=O)OC(C)Cn1nc(NC(=O)C(CC2CCOCC2)n2ncc(Oc3c(F)cccc3F)cc2=O)cc1C (stereo not drawn) [Example 131, Acetic acid 2-{3-[2-[4-(2,6-difluoro-phenoxy)-6-oxo-6H-pyridazin-1-yl]-3-(tetrahydro-pyran-4-yl)-propionylamino]-5-methyl-pyrazol-1-yl}-1-methyl-ethyl ester] | 
13 | > 30 | 1.18 | Cc1cc(NC(=O)C(CC2CCOCC2)n2ncc(Oc3c(F)cccc3F)cc2=O)nn1CC(C)O (stereo not drawn) [Example 132, 2-[4-(2,6-Difluoro-phenoxy)-6-oxo-6H-pyridazin-1-yl]-N-[1-(2-hydroxy-propyl)-5-methyl-1H-pyrazol-3-yl]-3-(tetrahydro-pyran-4-yl)-propionamide] | 
14 | 0.135 |  | CC(C)(O)Cn1ccc(NC(=O)C(CC2CCCCC2)n2ncc(Oc3cccc4c3OCCO4)cc2=O)n1 (stereo not drawn) [Example 133, 3-Cyclohexyl-2-[4-(2,3-dihydro-benzo[1,4]dioxin-5-yloxy)-6-oxo-6H-pyridazin-1-yl]-N-[1-(2-hydroxy-2-methyl-propyl)-1H-pyrazol-3-yl]-propionamide] | 
15 | 0.693 |  | CC(C)CC(C(=O)Nc1ccn(CC(C)(C)O)n1)n1ncc(Oc2ccccc2Cl)cc1=O (stereo not drawn) [Example 134, 2-[4-(2-Chloro-phenoxy)-6-oxo-6H-pyridazin-1-yl]-4-methyl-pentanoic acid [1-(2-hydroxy-2-methyl-propyl)-1H-pyrazol-3-yl]-amide] | 
16 | 0.235 |  | CC(C)(O)Cn1ccc(NC(=O)C(CC2CCOCC2)n2ncc(Oc3ccccc3Cl)cc2=O)n1 (stereo not drawn) [Example 135, 2-[4-(2-Chloro-phenoxy)-6-oxo-6H-pyridazin-1-yl]-N-[1-(2-hydroxy-2-methyl-propyl)-1H-pyrazol-3-yl]-3-(tetrahydro-pyran-4-yl)-propionamide] | 
17 | 1.17 |  | CC(C)(O)Cn1ccc(NC(=O)C(CC2CCCCC2)n2ncc(Oc3ccccc3)c(Cl)c2=O)n1 (stereo not drawn) [Example 136, 2-(5-Chloro-6-oxo-4-phenoxy-6H-pyridazin-1-yl)-3-cyclohexyl-N-[1-(2-hydroxy-2-methyl-propyl)-1H-pyrazol-3-yl]-propionamide] | 
18 | 0.731 |  | CC(C)CC(C(=O)Nc1ccn(C[C@@H](O)CO)n1)n1ncc(Oc2ccccc2Cl)cc1=O (stereo partly drawn) [Example 137, 2-[4-(2-Chloro-phenoxy)-6-oxo-6H-pyridazin-1-yl]-4-methyl-pentanoic acid [1-((R)-2,3-dihydroxy-propyl)-1H-pyrazol-3-yl]-amide] | 
